Experimental data taken from patent US20220281910A1, “DINUCLEOTIDE COMPOUNDS FOR TREATING CANCERS AND MEDICAL USES THEREOF” (PINOTBIO, INC., priority 2019, published 2022).

What was measured:
Assay type in all cases: cell-based
H460 = assay: Cell viability assay (CellTiterGlo), H460; conditions: Homo sapiens, NCI-H460; H460, origin NSCLC; 72 h
Protocol: (§1) The test compounds and bortezomib (positive control) were solved in DMSO as 5 mM solution, which was aliquoted, frozen at −20° C. and thawed just prior addition by nanodrop dispensing. Compound treatment of cells started one day after seeding with a final DMSO concentration of 0.1% and was generally performed by nanodrop-dispensing using a Tecan Dispenser. 0.1% DMSO (solvent) and Staurosporine (1.0E-05 M) served as high control (100% viability) and low control (0% viability), respectively.
(§2) Cells were cultured in different media. For the assays, cells were seeded in white cell culture-treated flat and clear bottom multiwell plates and incubated at 37° C. before the compound was added. After incubation for 72 h at 37° C. at 5% or 10% CO2 dependent on the medium, cell plates were equilibrated to room temperature for one hour, CellTiterGlo reagent (Promega) was added and luminescence was measured ap-proximately an hour later using a luminometer.
(§3) Raw data were converted into percent cell viability relative to the high and low control, which were set to 100% and 0%, respectively. IC50 calculation was performed using GraphPad Prism software with a variable slope sigmoidal response fitting model using 0% viability as bottom constraint and 100% viability as top constraint.

NCI-H2286 = assay: Cell viability assay (CellTiterGlo), NCI-H2286; conditions: Homo sapiens; NCI-H2286, origin NSCLC; 72 h
Protocol: as §1, §2, §3

MV4-11 = assay: Cell viability assay (CellTiterGlo), MV4-11; conditions: Homo sapiens; MV4-11, origin AML; 72 h
Protocol: as §1, §2, §3

DU-145 = assay: Cell viability assay (CellTiterGlo), DU-145; conditions: Homo sapiens; DU-145, origin Prostate; 72 h
Protocol: as §1, §2, §3

A375 = assay: Cell viability assay (CellTiterGlo), A375; conditions: Homo sapiens, A-375; A375, origin Skin; 72 h
Protocol: as §1, §2, §3

IC50 (H460): 16 nM | IC50 (NCI-H2286): 6.6 nM | IC50 (MV4-11): 3.8 nM | IC50 (DU-145): 11 nM | IC50 (A375): 8.5 nM
SMILES: CC(C)C[C@H](NC(=O)[C@H](Cc1ccccc1)NC(=O)c1cnccn1)B(O)O [Bortezomib, bortezomib]
